Assay results as given in ChEMBL document CHEMBL1146082, “Development of a structural model for NF-kappaB inhibition of sesquiterpene lactones using self-organizing neural networks” (J Med Chem, 2006).

Biological target: Transcription factor p65 (Homo sapiens) (UniProt Q04206)
Test: Inhibition of NF-kappaB DNA binding by EMSA

Chain of Transcription factor p65 (Homo sapiens) (Q04206 whole entry): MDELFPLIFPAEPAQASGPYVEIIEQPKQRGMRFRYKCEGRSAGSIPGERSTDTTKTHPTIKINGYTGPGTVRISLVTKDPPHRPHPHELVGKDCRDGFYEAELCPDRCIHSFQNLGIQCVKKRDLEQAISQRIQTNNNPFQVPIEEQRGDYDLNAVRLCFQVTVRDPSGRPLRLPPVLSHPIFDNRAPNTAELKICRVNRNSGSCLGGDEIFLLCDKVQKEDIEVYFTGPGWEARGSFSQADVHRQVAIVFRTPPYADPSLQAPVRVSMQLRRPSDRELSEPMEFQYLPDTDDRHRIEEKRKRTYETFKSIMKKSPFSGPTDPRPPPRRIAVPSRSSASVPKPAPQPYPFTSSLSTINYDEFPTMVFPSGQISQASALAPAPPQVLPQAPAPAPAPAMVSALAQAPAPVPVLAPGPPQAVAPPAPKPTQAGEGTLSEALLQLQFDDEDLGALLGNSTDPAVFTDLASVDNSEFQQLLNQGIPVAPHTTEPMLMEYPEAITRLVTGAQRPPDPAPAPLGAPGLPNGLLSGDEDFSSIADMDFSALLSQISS

SMILES | IC100 [µM]
C=C(C)C(=O)O[C@H]1C[C@@]2(C)OC(=CC2=O)C(=C)[C@@H](Cl)[C@H]2OC(=O)C(=C)[C@@H]21 | 5
C=C1C(=O)O[C@@H]2C[C@@H](C)[C@@H]3C=CC(=O)[C@@]3(C)[C@@H](OC(=O)C(C)C)[C@H]12 | 20
C=C1C(=O)O[C@@H]2/C=C(/CO)C3=CC(=O)[C@@](C)(C[C@H](OC(=O)/C(C)=C\C)[C@@H]12)O3 | 5
C=C1C(=O)O[C@@H]2C[C@@H](C)[C@@H]3[C@H](OCC)CC(=O)[C@@]3(C)[C@H](OC(C)=O)[C@H]12 | 50
C=C1C(=O)O[C@@H]2/C=C(/C)[C@]3(O)O[C@](C)(C[C@@H](OC(=O)/C(C)=C\C)[C@@H]12)C[C@@H]3O | 50
C[C@@H]1C[C@H]2OC(=O)[C@@H](C)[C@H]2[C@H](O)[C@]2(C)C(=O)C=C[C@@H]12 | 200
C=C1C(=O)O[C@@H]2C[C@@H](C)[C@@H]3C=CC(=O)[C@@]3(C)[C@H](OC(=O)C(C)CC)[C@H]12 (stereo partly specified) | 10
C=C[C@]1(C)CC[C@H]2C(=C)C(=O)O[C@@H]2[C@H]1C(=C)C | 100
C=C1C(=O)O[C@@H]2C[C@H](C)C3=CC(=O)[C@H](C)[C@@H]3C[C@H]12 | 50
C=C1C(=O)O[C@H]2C3=C(C(=O)C[C@@H]3C)[C@@H](C)CC[C@@H]12 | 20
C=C(C)C(=O)O[C@H]1/C(C=O)=C\CC/C(C)=C/[C@H]2OC(=O)C(=C)[C@@H]2[C@@H]1O | 5
C=C1C(=O)O[C@H]2[C@H]1[C@H](OC(=O)[C@@]1(C)O[C@H]1C)[C@@H](OC(C)=O)/C(C(=O)OC)=C\CC[C@@]1(C)O[C@H]21 | 10
C=C1C(=O)C[C@H]2C(=C)C(=O)O[C@@H]2/C=C(\COC(=O)C(C)C)CC[C@@H]1OC | 25
C=C1C(=O)O[C@@H]2/C=C(/C)[C@]3(O)O[C@](C)(C[C@@H](OC(=O)C(C)C)[C@@H]12)C(=O)[C@@H]3OC | 200
CC[C@@H](C)[C@@]1(O)O[C@H]2C[C@@]3(C)OC(=CC3=O)/C(COC(C)=O)=C\[C@H]3OC(=O)[C@@]1(C)C23 (stereo partly specified) | 5
C=C1C(=O)O[C@@H]2C[C@H](C)C3=C(C[C@H]12)[C@@H](C)CC3=O | 20
C=C(C)C(=O)O[C@H]1[C@H]2C(=C)C(=O)O[C@@H]2[C@@H](O)[C@@]2(CC/C=C(/C=O)[C@@H]1OC(C)=O)CO2 | 5

SMILES | IC100 [µM]
C=C(C)C(=O)O[C@@H]1/C=C(\C=O)CCCC(=C)[C@H](O)[C@H]2OC(=O)C(=C)[C@@H]21 | 10
C=C1C(=O)O[C@H]2C[C@@H](C)[C@@H]3C=CC(=O)[C@@]3(C)[C@H](O)[C@H]12 | 20
C=C(C)C(=O)O[C@@H]1C[C@](C)(O)[C@@H]2C(=O)C=C(C)[C@@H]2[C@H]2OC(=O)C(=C)[C@@H]21 | 50
C=C1C(=O)O[C@@H]2/C=C(\COC(=O)C(C)C)CC/C=C(\CO)C(=O)C[C@@H]12 | 12.5
C=C1C(=O)O[C@H]2C[C@H](C)C3=C(C[C@H]12)[C@@H](C)CC3=O | 20
C=C1C(=O)O[C@@H]2[C@H]3C(C)=C(Cl)C(=O)C3=C(C)CC[C@@H]12 | 20
C=C1[C@H](O)C[C@H](O)[C@]2(C)CC[C@H]3C(=C)C(=O)O[C@@H]3[C@@H]12 | 100
C=C1C(=O)O[C@@H]2/C=C(/CO)C3=CC(=O)[C@@](C)(C[C@@H](OC(=O)/C(C)=C/C)[C@@H]12)O3 | 5
C=C1C(=O)O[C@]23C[C@H]1CCC(COC(C)=O)=C2C(=O)C=C3C | 100
C=C1C(=O)O[C@@H]2/C=C(/C)C3=CC(=O)[C@@](C)(C[C@@H](OC(=O)/C(C)=C\C)[C@@H]12)O3 | 5
C=C(C)C(=O)O[C@H]1[C@@H]2[C@H](C)C(=O)O[C@@H]2C[C@@H](C)[C@@H]2C=CC(=O)[C@]21C | 100
C=C1C(=O)O[C@@H]2/C=C(/CO)[C@@]3(O)CC[C@@](C)(C[C@@H](OC(=O)/C(C)=C\C)[C@@H]12)O3 | 20
C=C1C(=O)O[C@@H]2/C=C(\COC(=O)C(C)C)CC/C=C(\CO)[C@H](O)C[C@@H]12 | 100
C=C1C(=O)O[C@@H]2C3=C(C(=O)C[C@@H]3C)[C@@H](C)CC[C@@H]12 | 20
C=C1C(=O)O[C@H]2C/C(CO)=C/CC/C(COC(=O)C(C)C(C)O)=C/C[C@H]12 (stereo partly specified) | 50
C=C1C(=O)O[C@H]2C[C@H](C)C3=CC(=O)[C@H](C)C3C[C@H]12 (stereo partly specified) | 20
C=C1C(=O)O[C@H]2/C=C(\C)CC/C=C(\C)[C@@H](OC(=O)[C@@]3(C)O[C@H]3C)[C@H](O)[C@@H]12 | 50

Further lines, results first:

IC100 [µM] | SMILES
50 | C=C1C(=O)O[C@@H]2C[C@@H](C)[C@@H]3CCC(=O)[C@@]3(C)C[C@H]12
200 | C=C1C(=O)O[C@@H]2C[C@H](C)[C@@]3(O)CC[C@@](C)(C[C@@H](OC(=O)C(C)C)[C@@H]12)O3
200 | C=C1C(=O)O[C@@H]2C[C@@]3(C)[C@H](O)CC[C@@](O)(COC(=O)C(C)C)[C@@H]3C[C@H]12
200 | C=C1[C@@H]2[C@H]3OC(=O)C(=C)[C@@H]3CCC(=C)[C@@H]2C[C@@H]1OC(=O)C=C(C)C
200 | C=C1CCC=C(C)[C@@]2(O)[C@H](OC(=O)[C@]3(C)O[C@@H]3C)[C@@H]3[C@@H](OC(=O)[C@@H]3C)[C@H]12
200 | C=C(C)C(=O)O[C@@H]1C[C@]2(C)CC[C@@](OC)(O2)/C(C)=C\[C@H]2OC(=O)C(=C)[C@@H]21
50 | C=C(C)C(=O)OC/C1=C\C[C@@H]2C(=C)C(=O)O[C@H]2C/C(CO)=C/CC1
5 | C=C1C(=O)O[C@H]2[C@H]1CCC(C)=C1C(=O)[C@H]3O[C@@]3(C)[C@@H]12
10 | C=C1C(=O)O[C@@H]2/C=C(\C)CC/C=C(/C)CC[C@@]12O
10 | C=C1C(=O)O[C@H]2[C@H]1[C@H](OC(=O)/C(C)=C\C)C[C@@]1(C)OC(=CC1=O)C(=C)[C@@H]2O
20 | C=C1C(=O)O[C@@H]2C3O[C@]3(C)CC/C=C(\C)CC[C@@H]12 (stereo partly specified)
10 | C=C(C)C(=O)O[C@H]1[C@H]2C(=C)C(=O)O[C@@H]2[C@@H]2O[C@]2(C)CC/C=C(/C=O)[C@@H]1O
50 | C=C1C(=O)O[C@@H]2C[C@@]3(C)[C@H](O)CC=C(COC(=O)C(C)C)[C@@H]3C[C@H]12
200 | C=C1[C@H](O)C[C@@H](O)[C@]2(C)CC[C@H]3C(=C)C(=O)O[C@@H]3[C@@H]12
300 | C[C@H]1C(=O)O[C@H]2C/C(CO)=C/CC/C(CO)=C/C[C@@H]21
5 | C=C(C)C(=O)O[C@@H]1/C=C(/C=O)CCCC(=C)[C@H](O)[C@H]2OC(=O)C(=C)[C@@H]21
5 | C=C(C)C(=O)O[C@H]1[C@H]2C(=C)C(=O)O[C@@H]2/C=C(\COC(C)=O)CC/C=C(/C=O)[C@@H]1O
20 | C=C(CO)C(=O)OC/C1=C\C[C@@H]2C(=C)C(=O)O[C@H]2C/C(CO)=C/CC1
5 | C=C1C(=O)C=C2[C@H]1C[C@@H]1C(=C)C(=O)O[C@H]1C[C@@H]2C
10 | C=C1C(=O)C=C2[C@H]1C[C@@H]1C(=C)C(=O)O[C@@H]1C[C@@H]2C
200 | CC(=O)O[C@H]1[C@@H]2[C@H](C)C(=O)O[C@@H]2C[C@@H](C)[C@@H]2C=CC(=O)[C@]21C
50 | C=C1C(=O)O[C@H]2/C=C(\C)CC/C=C(/C)C(=O)[C@H](OC(=O)[C@@]3(C)O[C@H]3C)[C@@H]12
10 | C=C(C)C(=O)O[C@H]1C[C@@]2(C)OC(=CC2=O)C(=C)[C@@H](O)[C@H]2OC(=O)C(=C)[C@@H]21
5 | C=C(C)C(=O)O[C@H]1/C(C=O)=C\CC/C(COC(C)=O)=C/[C@H]2OC(=O)C(=C)[C@@H]2[C@@H]1O

IC100 [µM] | SMILES
50 | C=C(C)C(=O)O[C@H]1[C@H]2C(=C)C(=O)O[C@@H]2[C@@H](O)C(=C)CC/C=C(/C=O)[C@@H]1OC
10 | C=C(C)C(=O)O[C@H]1[C@H]2C(=C)C(=O)O[C@@H]2/C=C(\C)CC/C=C(/C=O)[C@@H]1O
100 | C=C1C(=O)O[C@@H]2C[C@@]3(C)CC(=O)C(OC(C)=O)=C(C)C3C[C@H]12 (stereo partly specified)
50 | C=C(C)C(=O)O[C@@H]1C[C@]2(C)CC[C@@](O)(O2)/C(C)=C\[C@H]2OC(=O)C(=C)[C@@H]21
50 | C=C1C(=O)O[C@@H]2C[C@H](C)[C@@H]3CC(=O)C(C)=C3C[C@H]12
50 | C=C1C(=O)O[C@@H]2/C=C(\C)[C@H](OC(C)=O)C/C=C(/C)CC[C@@H]12
5 | C=C1C(=O)O[C@@H]2/C=C(/C)C3=CC(=O)[C@@](C)(C[C@@H](OC(=O)/C(C)=C/C)[C@@H]12)O3
100 | C=C1[C@@H]2[C@H]3OC(=O)C(=C)[C@@H]3CCC(=C)[C@@H]2C[C@@H]1OC(C)=O
20 | C=C1C(=O)O[C@@H]2[C@H]3C(C)=CC(=O)C3=C(C)C[C@@H](OC(=O)[C@]3(C)O[C@@H]3C)[C@@H]12
20 | C=C(C)C(=O)O[C@H]1C[C@@]2(C)OC(=CC2=O)/C(CO)=C\[C@H]2OC(=O)C(=C)[C@H]12
100 | C=C1C(=O)O[C@@H]2[C@H]3C(C)=CC[C@@H](O)[C@]3(C)CC[C@@H]12
50 | C=C1C(=O)O[C@H]2C/C(CO)=C/CC/C(COC(=O)C(C)(C)O)=C/C[C@H]12
50 | C=C1C[C@@H]2OC(=O)C(=C)[C@H]2[C@H](O)/C=C(\C)CCC1=O
10 | C=C1C(=O)O[C@@H]2[C@H]1[C@@H](OC(=O)[C@]1(C)O[C@@H]1C)C(=O)[C@@]1(C)C=CC[C@@](C)(O)[C@H]21
10 | C=C1C(=O)O[C@H]2[C@H]1[C@@H](OC(=O)/C(C)=C/C)C/C(C)=C/C(=O)/C=C(/C)[C@@H]2O
200 | C=C1C(=O)O[C@H]2/C=C(\C)[C@@H](O)CC/C(C)=C/[C@@H](O)[C@H]12
50 | C=C1C(=O)O[C@@H]2[C@H]3C(C)=CC(=O)C3=C(C)CC[C@@H]12
50 | C=C(CO)C(=O)OC/C1=C\C[C@@H]2C(=C)C(=O)O[C@H]2C/C(COC(C)=O)=C/CC1
5 | C=C(C)C(=O)O[C@@H]1/C=C(/C=O)CCC[C@@]2(CO2)[C@H](O)[C@H]2OC(=O)C(=C)[C@@H]21
200 | C=C1[C@@H]2[C@H]3OC(=O)C(=C)[C@@H]3CC[C@](C)(O)[C@@H]2C[C@@H]1O
10 | C=C(C)C(=O)O[C@@H]1CC(C)=C2C(=O)C=C(C)[C@@H]2[C@H]2OC(=O)C(=C)[C@@H]21
50 | C=C1C(=O)O[C@@H]2/C=C(\C)CC/C=C(\C)CC[C@@H]12
50 | C=C1C(=O)O[C@@H]2[C@H]3C(CO)=CC(=O)C3=C(C)CC[C@@H]12
